This passage reports IC50 results from US20120264735A1 (priority 2009, published 2012).

Bounds are passed on as bounds.

The test deals with T1, c-Met kinase (recombinant c-Met) (Homo sapiens, UniProt P08581).
T1 construct: 0.27 nM recombinant c-Met
T1 sequence (P08581 25-1390): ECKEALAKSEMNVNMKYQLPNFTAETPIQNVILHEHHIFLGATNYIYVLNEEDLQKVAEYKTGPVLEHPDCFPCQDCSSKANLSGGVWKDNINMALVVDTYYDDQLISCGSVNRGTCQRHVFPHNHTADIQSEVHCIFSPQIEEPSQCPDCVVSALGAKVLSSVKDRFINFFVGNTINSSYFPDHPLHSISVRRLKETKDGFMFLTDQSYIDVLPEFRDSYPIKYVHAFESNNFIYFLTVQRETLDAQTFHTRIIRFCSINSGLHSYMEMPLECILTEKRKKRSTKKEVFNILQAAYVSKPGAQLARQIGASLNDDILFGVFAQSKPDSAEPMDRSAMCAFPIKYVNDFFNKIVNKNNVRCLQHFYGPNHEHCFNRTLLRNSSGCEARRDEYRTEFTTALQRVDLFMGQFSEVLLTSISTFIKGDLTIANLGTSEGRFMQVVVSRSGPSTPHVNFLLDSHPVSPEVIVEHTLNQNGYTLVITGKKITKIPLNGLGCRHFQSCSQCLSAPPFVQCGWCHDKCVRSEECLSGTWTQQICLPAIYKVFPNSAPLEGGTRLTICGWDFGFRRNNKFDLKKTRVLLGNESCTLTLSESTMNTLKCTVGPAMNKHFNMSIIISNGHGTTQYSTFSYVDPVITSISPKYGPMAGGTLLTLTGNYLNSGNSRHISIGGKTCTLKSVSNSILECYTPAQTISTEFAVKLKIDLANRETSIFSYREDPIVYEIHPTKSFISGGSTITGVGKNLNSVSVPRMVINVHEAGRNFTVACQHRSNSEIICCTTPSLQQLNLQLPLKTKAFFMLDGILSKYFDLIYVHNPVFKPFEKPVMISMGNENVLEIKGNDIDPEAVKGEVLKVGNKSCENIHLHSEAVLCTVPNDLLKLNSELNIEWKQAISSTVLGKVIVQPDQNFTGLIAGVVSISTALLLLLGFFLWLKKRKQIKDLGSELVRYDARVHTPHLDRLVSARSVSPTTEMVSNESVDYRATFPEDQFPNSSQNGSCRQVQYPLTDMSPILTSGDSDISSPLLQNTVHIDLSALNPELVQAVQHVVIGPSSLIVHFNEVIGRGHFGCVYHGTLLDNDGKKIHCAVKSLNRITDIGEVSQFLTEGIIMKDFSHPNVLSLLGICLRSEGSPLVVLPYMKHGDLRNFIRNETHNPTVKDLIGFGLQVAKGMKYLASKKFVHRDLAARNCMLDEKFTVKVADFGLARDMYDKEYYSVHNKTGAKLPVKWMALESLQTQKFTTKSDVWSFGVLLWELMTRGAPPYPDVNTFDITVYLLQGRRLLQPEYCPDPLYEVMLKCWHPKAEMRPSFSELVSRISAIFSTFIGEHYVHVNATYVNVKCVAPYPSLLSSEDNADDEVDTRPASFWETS
Nature of the test: In vitro kinase assay I (homogeneous time-resolved fluorescence tyrosine kinase assay). Format: biochemical. In short, it runs like this: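 Biotinylated peptide (0.5 μM) phosphorylated by 0.2 nM recombinant c-Met with 50 μM MgATP, 60 min at room temperature, pH 7.4, 5% DMSO. EDTA stop; HTRF read with Eu-anti-phosphotyrosine antibody and streptavidin-APC. IC50 from 4-parameter logistic fit.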
Broadly, the IC50 is the midpoint of a concentration-inhibition curve. For the compound `CCc1cnc(-c2cccc(C(C)c3nn(-c4cnn(C)c4)ccc3=O)c2)nc1` (single isomer, unassigned) [Example 236, 3-{(1S or R)-1-[3-(5-ethylpyrimidin-2-yl)phenyl]ethyl}-1-(1-methyl-1H-pyrazol-4-yl)pyridazin-4(1H)-one], the IC50 was under 0.1 µM. Regarding `O=C(Nc1cccc(Cc2nn(-c3cc(F)cc(F)c3)ccc2=O)c1)OCCCN1CCS(=O)(=O)CC1` [Example 522, 3-(1,1-dioxidothio-morpholin-4-yl)propyl (3-{[1-(3,5-difluorophenyl)-4-oxo-1,4-dihydropyridazin-3-yl]methyl}phenyl)carbamate], the IC50 is under 0.1 µM.

`Cn1cc(-n2ccc(=O)c(Cc3cccc(-c4ncc(O[C@@H]5COC[C@@H]5F)cn4)c3)n2)cn1` (racemic) [Example 390, rac-3-(3-{5-[(cis-4-fluorotetra-hydrofuran-3-yl}oxy]pyrimidin-2-yl}benzyl)-1-(1-methyl-1H-pyrazol-4-yl)pyridazin-4(1H)-one]: the IC50 is under 0.1 µM. Consider `Cn1cc(-n2ccc(=O)c(Cc3cccc(NC(=O)OCCC(C)(C)O)c3)n2)cn1` [Example 526, 3-hydroxy-3-methylbutyl (3-{[1-(1-methyl-1H-pyrazol-4-yl)-4-oxo-1,4-dihydropyridazin-3-yl]methyl}phenyl)carbamate], for which the IC50 is under 0.1 µM. `CCOC(=O)Nc1cccc(Cc2nn(-c3cnn(CCOC)c3)ccc2=O)c1` [Example 106, ethyl [3-({1-[1-(2-methoxyethyl)-1H-pyrazol-4-yl]-4-oxo-1,4-dihydropyridazin-3-yl}methyl)phenyl]carbamate]: the IC50 was 0.1 to 1 µM. Next, `O=C(Nc1cccc(Cc2nn(-c3cc(F)c(F)c(F)c3)ccc2=O)c1)OCCCn1cccc1` [Example 548, 3-(1H-pyrrol-1-yl)propyl (3-{[4-oxo-1-(3,4,5-trifluorophenyl)-1,4-dihydropyridazin-3-yl]methyl}phenyl)carbamate]: under 0.1 µM; `Cn1cc(-n2ccc(=O)c(Cc3cccc(-c4ncc(OCCO)cn4)c3)n2)cn1` [Example 264, 3-{3-[5-(2-hydroxyethoxy)pyrimidin-2-yl]benzyl}-1-(1-methyl-1H-pyrazol-4-yl)pyridazin-4(1H)-one]: under 0.1 µM; `O=c1ccn(-c2cc(F)cc(F)c2)nc1Cc1cccc(-c2ncc(OCC3CCOCC3)cn2)c1` [Example 331, 1-(3,5-difluorophenyl)-3-{3-[5-(tetrahydro-2H-pyran-4-ylmethoxy)pyrimidin-2-yl]benzyl}pyridazin-4(1H)-one]: under 0.1 µM. For `Cn1cc(-n2ccc(=O)c(Cc3cccc(-c4ncc(OCC5(CF)COC5)cn4)c3)n2)cn1` [Example 387, 3-[3-(5-{[3-(Fluoromethyl)oxetan-3-yl]methoxy}pyrimidin-2-yl)benzyl]-1-(1-methyl-1H-pyrazol-4-yl)pyridazin-4(1H)-one] the value was under 0.1 µM. In the case of `Cn1cc(-n2ccc(=O)c(Cc3cccc(-c4ncc(OC(F)F)cn4)c3)n2)cn1` [Example 386, 3-{3-[5-(Difluoromethoxy)pyrimidin-2-yl]benzyl}-1-(1-methyl-1H-pyrazol-4-yl)pyridazin-4(1H)-one], the IC50 was under 0.1 µM. For `O=C(Nc1cccc(Cc2nn(-c3cnn(CC(F)(F)F)c3)ccc2=O)c1)OCCN1CCOCC1` [Example 116, 2-morpholin-4-ylethyl [3-({4-oxo-1-[1-(2,2,2-trifluoroethyl)-1H-pyrazol-4-yl]-1,4-dihydropyridazin-3-yl}methyl)phenyl]carbamate] the value was under 0.1 µM; for `CCn1cc(-n2ccc(=O)c(Cc3cccc(-c4ncc(OC5CNC5)cn4)c3)n2)cn1` [Example 337, 3-{3-[5-(azetidin-3-yloxy)pyrimidin-2-yl]benzyl}-1-(1-ethyl-1H-pyrazol-4-yl)pyridazin-4(1H)-one], under 0.1 µM; for `CC(C)COC(=O)Nc1cccc(Cc2nn(-c3cn[nH]c3)ccc2=O)c1` [Example 197, isobutyl (3-{[4-oxo-1-(1H-pyrazol-4-yl)-1,4-dihydropyridazin-3-yl]methyl}phenyl)carbamate], under 0.1 µM.

`CCOc1cnc2ccc(C(C)c3nn(-c4cnn(CC)c4)ccc3=O)cc2c1` (single isomer, unassigned) [Example 226, 3-[(1S or R)-1-(3-ethoxyquinolin-6-yl)ethyl]-1-(1-ethyl-1H-pyrazol-4-yl)pyridazin-4(1H)-one]: the IC50 lay within 0.1 to 1 µM.

For `Cn1cc(-n2ccc(=O)c(Cc3cccc(-c4ncc(CNC5CCCCC5)cn4)c3)n2)cn1` [Example 432, 3-(3-{5-[(cyclohexyl-amino)methyl]pyrimidin-2-yl}benzyl)-1-(1-methyl-1H-pyrazol-4-yl)pyridazin-4(1H)-one], the IC50 lay in the range of 0.1 to 1 µM. In the case of `CCCCNC(=O)Nc1cccc(Cc2nn(-c3cnn(C)c3)ccc2=O)c1` [Example 494, 1-butyl-3-(3-{[1-(1-methyl-1H-pyrazol-4-yl)-4-oxo-1,4-dihydropyridazin-3-yl]methyl}phenyl)urea], the IC50 was under 0.1 µM.

As to `COCCOc1cnc(-c2cccc(C(CCO)c3nn(-c4cnn(C)c4)ccc3=O)c2)nc1` (racemic) [Example 253, rac-3-(3-Hydroxy-1-{3-[5-(2-methoxyethoxy)pyrimidin-2-yl]phenyl}propyl)-1-(1-methyl-1H-pyrazol-4-yl)pyridazin-4(1H)-one], the IC50 fell in the range of 1 to 3 µM. On to `Cn1cc(-n2ccc(=O)c(Cc3cccc(-c4ncc(OC5CCC6(CC5)OCCO6)cn4)c3)n2)cn1` [Example 123, 3-{3-[5-(1,4-dioxaspiro[4.5]dec-8-yloxy)pyrimidin-2-yl]benzyl}-1-(1-methyl-1H-pyrazol-4-yl)pyridazin-4(1H)-one], for which the IC50 was under 0.1 µM. Consider `Cn1cnc(-c2cccc(Cc3nn(-c4ccccc4)ccc3=O)c2)n1` [Example 670, 3-[3-(1-Methyl-1H-1,2,4-triazol-3-yl)benzyl]-1-phenylpyridazin-4(1H)-one], for which the IC50 is 0.1 to 1 µM. On to `Cn1cc(-n2ccc(=O)c(Cc3cccc(-c4ncc(OCc5ccsn5)cn4)c3)n2)cn1` [Example 284, 3-{3-[5-(isothiazol-3-ylmethoxy)pyrimidin-2-yl]benzyl}-1-(1-methyl-1H-pyrazol-4-yl)pyridazin-4(1H)-one], for which the IC50 was under 0.1 µM.

Take `CCCn1cnc(-c2cccc(Cc3nn(-c4cccc(C#N)c4)ccc3=O)c2)n1` [Example 85, 3-{4-oxo-3-[3-(1-propyl-1H-1,2,4-triazol-3-yl)benzyl]pyridazin-1(4H)-yl}benzonitrile]: the IC50 is under 0.1 µM. Consider `COCCOCCOC(=O)Nc1cccc(Cc2nn(-c3ccc(F)c(F)c3)ccc2=O)c1` [Example 602, 2-(2-methoxyethoxy)ethyl (3-{[1-(3,4-difluorophenyl)-4-oxo-1,4-dihydropyridazin-3-yl]methyl}phenyl)carbamate], for which the IC50 is under 0.1 µM. On to `COC(C)(C)COc1cnc(-c2cccc(C(C)c3nn(-c4ccc(F)c(F)c4)ccc3=O)c2)nc1` (single isomer, unassigned) [Example 251, 1-(3,4-difluorophenyl)-3-[(1S or R)-1-{3-[5-(2-methoxy-2-methylpropoxy)pyrimidin-2-yl]phenyl}ethyl]pyridazin-4(1H)-one], for which the IC50 is under 0.1 µM.
